Reference: patent US20190225650A1, “PEPTIDOMIMETIC MACROCYCLES AND USE THEREOF IN REGULATING HIF1ALPHA” (AILERON THERAPEUTICS, INC., priority 2013, published 2019)
Bridge positions count the residues as written; N and C are the ends. Square brackets hold non-standard residues; d marks the D form. Peptide text beside a SMILES is read from it. R5 = C=CCCC[C@@](C)(N)C(=O)O; S5 = C=CCCC[C@](C)(N)C(=O)O; Nle = CCCC[C@H](N)C(=O)O; Dap = NC[C@H](N)C(=O)O

Tested on: HRE-bla ME-180 cells
Experiment: Reporter gene assay (HRE-bla ME-180 HIF reporter, GeneBLAzer)
Type: cell-based, human
Conditions: for EC50: 24 hour normoxia
Procedure: The following reagents were used:
• DMEM+GutaMAX: (#10569044, Invitrogen) • Black clear bottom plates: (#3603, Costar) • HRE-bla-ME-180 cell line: (#K1644, Invitrogen) • Gene-Blazer reagent & protocol: (#K1096, Invitrogen) • Plate reader: Biotek Synergy 2 • Chetomin: (C9623, Sigma)
4 hours prior to experiment: HRE-bla ME-180 cells were seeded at a density of 20,000 cells/well in a volume of 180 μl in black clear bottom 96-well plates. 180 μl of assay medium was added to the cell-free control wells. Incubation was conducted at 37° C., 5% CO2 for 4 hours.
Diluted chetomin was used as a positive control. Chetomin was diluted in 100% DMSO to a 10 mM stock concentration. A 1 mM stock of chetomin was prepared in 100% DMSO. Then the 1 mM chetomin stock was serially diluted in 1:4 in 100% DMSO. Finally, 50, 12.5, 3.125, 0.78, 0.2, 0.05 μM stock of chetomin in 5% DMSO/water were prepared by adding 114 μL water+6 μL chetomin in DMSO.
Test peptides were diluted before use. The test peptides were diluted in 100% DMSO to a 10 mM stock concentration. Then each 10 mM peptide stock was diluted in 1:3 in 100% DMSO. Finally, 300, 100, 33.3, 11.1, 3.7, 1.2 μM stock of each peptide in 5% DMSO/water were prepared by adding 129.2 μL water+4 μL peptide in DMSO.
20 μl of peptide, chetomin dilution, or DMSO/water control were added to the appropriate wells of a plate to achieve 200 μL final volumes in 0.3% DMSO/media. The plate was first incubated for 18-20 hours in normoxia incubator (37° C. in humidified 5% CO2, 20% O2 atmosphere). Then the plate was transferred to hypoxia incubator for 24 hours (37° C. in humidified 5% CO2, 1% O2 atmosphere)
6× LiveBLAzer™-FRET B/G (CCF4-AM) Substrate Mixture was prepared according to CellSensor™ HRE-bla ME-180 Cell-based Assay Protocol (Invitrogen) and added into each well. Solution A (CCF4-AM) was reconstituted in DMSO to a working concentration of 1 mM, divided in aliquots, and stored at −20° C. The 6× LiveBLAzer-FRET B/G (CCF4-AM) Substrate mixture was prepared by mixing 6 μl of Solution A, 60 μl of Solution B, and 934 μl Solution C.
The plates were removed from incubator and equilibrated to RT for a few minutes. Then 20 μl of 6× Substrate mixture was added to each well. The plates were then incubated at room temperature for 3 hr in the dark and read at 409 Ex/460Em and 409Ex/530Em using the “GeneBlazer-Tungsten with export” program on the Synergy 2.
The average percentage of maximum inhibition was obtained by comparing the peptide treated cells (30 μM) to DMSO vehicle control treated cells. The results are shown in the columns “ME-180 HIF Reporter EC50 (μM) −24 hr normoxia” and “18 h Avg % max inhibition at top conc (HIF Rptr-24 hrsnormoxia) (μM)” of Table 6.

Row | SMILES | EC50 | 18 h Avg % max inhibition at top conc (HIF Rptr-24 hrs normoxia) (μM)
1 | CC[C@H](C)[C@H](NC(=O)[C@H](Cc1ccccc1)NC(C)=O)C(=O)N[C@@H](CC(=O)O)C(=O)N[C@@H](CCC(=O)O)C(=O)N[C@@H](CCC(=O)O)C(=O)N[C@H](C(=O)N[C@@H](CC(C)C)C(=O)N[C@@H](C)C(=O)N[C@@]1(C)CCCC=CCCC[C@@](C)(C(=O)N[C@@H](C)C(=O)N[C@@H](C)C(=O)N[C@@H](CC(C)C)C(=O)N[C@@H](CC(=O)O)C(N)=O)NC(=O)[C@H]([C@@H](C)CC)NC(=O)[C@H](C(C)C)NC(=O)[C@H](CC(C)C)NC1=O)C(C)C [SP-60] (Ac-FIDEEVLA[S5]LVI[S5]AALD-NH2; staple 9-13) | > 30 µM | + (<10: +)
2 | CCCC[C@H](NC(=O)[C@H](CC(C)C)NC(=O)[C@@H](NC(=O)[C@H](CCC(=O)O)NC(=O)[C@H](CCC(=O)O)NC(=O)[C@H](CC(=O)O)NC(=O)[C@@H](NC(=O)[C@H](Cc1ccccc1)NC(C)=O)[C@@H](C)CC)C(C)C)C(=O)N[C@@]1(C)CCCC=CCCC[C@@](C)(C(=O)N[C@@H](CCCC)C(=O)N[C@@H](C)C(=O)N[C@@H](CC(C)C)C(=O)N[C@@H](CC(=O)O)C(=O)N[C@@H](CCCNC(=N)N)C(=O)N[C@H](C(N)=O)[C@@H](C)CC)NC(=O)[C@H](C)NC(=O)[C@H](C(C)C)NC(=O)[C@H](CC(C)C)NC1=O [SP-19] (Ac-FIDEEVL[Nle][S5]LVA[S5][Nle]ALDRI-NH2; staple 9-13) | 5 to 15 µM | +++ (≤25 but <50: +++)
3 | CCCC[C@H](NC(=O)[C@H](CO)NC(=O)[C@@H](NC(=O)[C@H](CCC(=O)O)NC(=O)[C@H](CCC(=O)O)NC(=O)[C@H](CC(=O)O)NC(=O)[C@@H](NC(=O)[C@H](Cc1ccccc1)NC(C)=O)[C@@H](C)CC)C(C)C)C(=O)N[C@@]1(C)CCCC=CCCC[C@@](C)(C(=O)N[C@@H](CCCC)C(=O)N[C@@H](C)C(=O)N[C@@H](CC(C)C)C(=O)N[C@@H](CC(=O)O)C(=O)N[C@@H](CCCNC(=N)N)C(=O)N[C@H](C(N)=O)[C@@H](C)CC)NC(=O)[C@H]([C@@H](C)CC)NC(=O)[C@H](C(C)C)NC(=O)[C@H](CC(C)C)NC1=O [SP-49] (Ac-FIDEEVS[Nle][S5]LVI[S5][Nle]ALDRI-NH2; staple 9-13) | 5 to 15 µM | ++++ (≥50: ++++)
4 | CCCC[C@H](NC(=O)[C@H](CC(C)C)NC(=O)[C@@H](NC(=O)[C@H](CCC(=O)O)NC(=O)[C@H](CCC(=O)O)NC(=O)[C@H](CC(=O)O)NC(=O)[C@@H](NC(=O)[C@H](Cc1ccccc1)NC(C)=O)[C@@H](C)CC)C(C)C)C(=O)N[C@@]1(C)CCCC=CCCC[C@@](C)(C(=O)N[C@@H](CCCC)C(=O)N[C@@H](C)C(=O)N[C@@H](CC(C)C)C(=O)N[C@@H](CC(=O)O)C(=O)N[C@@H](CCCNC(=N)N)C(=O)N[C@H](C(N)=O)[C@@H](C)CC)NC(=O)[C@H]([C@@H](C)CC)NC(=O)[C@H](CO)NC(=O)[C@H](CC(C)C)NC1=O [SP-52] (Ac-FIDEEVL[Nle][S5]LSI[S5][Nle]ALDRI-NH2; staple 9-13) | 15 to 30 µM | ++++ (≥50: ++++)
5 | CCCC[C@H](NC(=O)[C@H](CC(C)C)NC(=O)[C@@H](NC(=O)[C@H](CCC(=O)O)NC(=O)[C@H](CCC(=O)O)NC(=O)[C@H](CC(=O)O)NC(=O)[C@@H](NC(=O)[C@H](Cc1ccccc1)NC(C)=O)[C@@H](C)CC)C(C)C)C(=O)N[C@@]1(C)CCCC=CCCC[C@@](C)(C(=O)N[C@@H](CCCC)C(=O)N[C@@H](C)C(=O)N[C@@H](CC(C)C)C(=O)N[C@@H](CC(=O)O)C(=O)N[C@@H](CCCNC(=N)N)C(=O)N[C@H](C(N)=O)[C@@H](C)CC)NC(=O)[C@H](CN)NC(=O)[C@H](C(C)C)NC(=O)[C@H](CC(C)C)NC1=O [SP-65] (Ac-FIDEEVL[Nle][S5]LV[Dap][S5][Nle]ALDRI-NH2; staple 9-13) | > 30 µM | + (<10: +)

Second part, led by results:

Row | EC50 | SMILES | 18 h Avg % max inhibition at top conc (HIF Rptr-24 hrs normoxia) (μM)
6 | 5 to 15 µM | CC[C@H](C)[C@H](NC(C)=O)C(=O)N[C@@H](CC(=O)O)C(=O)N[C@@H](CCC(=O)O)C(=O)N[C@@H](CCC(=O)O)C(=O)N[C@H](C(=O)N[C@@H](CC(C)C)C(=O)N[C@@H](CCSC)C(=O)N[C@@]1(C)CCCC=CCCC[C@@](C)(C(=O)N[C@@H](CCSC)C(=O)NCC(=O)N[C@@H](CC(C)C)C(=O)N[C@@H](CC(=O)O)C(=O)N[C@@H](CCCNC(=N)N)C(=O)N[C@H](C(=O)N[C@@H](CCCCN)C(=O)N[C@@H](CCC(=O)O)C(=O)N[C@@H](CC(C)C)C(=O)N2CCC[C@H]2C(=O)N[C@@H](CCC(=O)O)C(=O)N[C@@H](CC(C)C)C(=O)N[C@@H](Cc2c[nH]c3ccccc23)C(=O)N[C@@H](CC(C)C)C(N)=O)[C@@H](C)CC)NC(=O)[C@H]([C@@H](C)CC)NC(=O)[C@H](C(C)C)NC(=O)[C@H](CC(C)C)NC1=O)C(C)C [SP-86] (Ac-IDEEVLM[S5]LVI[S5]MGLDRIKELPELWL-NH2; staple 8-12) | ++++ (≥50: ++++)
7 | 5 to 15 µM | CCCC[C@H](NC(=O)[C@H](CC(C)C)NC(=O)[C@@H](NC(=O)[C@H](CCC(=O)O)NC(=O)[C@H](CCC(=O)O)NC(=O)[C@H](CC(=O)O)NC(=O)[C@@H](NC(=O)[C@H](Cc1ccccc1)NC(C)=O)[C@@H](C)CC)C(C)C)C(=O)N[C@@]1(C)CCCC=CCCC[C@@](C)(C(=O)N[C@@H](CCCC)C(=O)N[C@@H](C)C(=O)N[C@@H](CC(C)C)C(=O)N[C@@H](CC(=O)O)C(=O)N[C@@H](CCCNC(=N)N)C(=O)N[C@@H](C)C(N)=O)NC(=O)[C@H]([C@@H](C)CC)NC(=O)[C@H](C(C)C)NC(=O)[C@H](CC(C)C)NC1=O [SP-25] (Ac-FIDEEVL[Nle][S5]LVI[S5][Nle]ALDRA-NH2; staple 9-13) | +++ (≤25 but <50: +++)
8 | 5 to 15 µM | CCCC[C@H](NC(=O)[C@H](CC(C)C)NC(=O)[C@H](C)NC(=O)[C@H](CCC(=O)O)NC(=O)[C@H](CCC(=O)O)NC(=O)[C@H](CC(=O)O)NC(=O)[C@@H](NC(=O)[C@H](Cc1ccccc1)NC(C)=O)[C@@H](C)CC)C(=O)N[C@@]1(C)CCCC=CCCC[C@@](C)(C(=O)N[C@@H](CCCC)C(=O)N[C@@H](C)C(=O)N[C@@H](CC(C)C)C(=O)N[C@@H](CC(=O)O)C(=O)N[C@@H](CCCNC(=N)N)C(=O)N[C@H](C(N)=O)[C@@H](C)CC)NC(=O)[C@H]([C@@H](C)CC)NC(=O)[C@H](C(C)C)NC(=O)[C@H](CC(C)C)NC1=O [SP-14] (Ac-FIDEEAL[Nle][S5]LVI[S5][Nle]ALDRI-NH2; staple 9-13) | ++++ (≥50: ++++)
9 | 15 to 30 µM | CC[C@H](C)[C@H](NC(=O)[C@H](CCCNC(=N)N)NC(=O)[C@H](CC(=O)O)NC(=O)[C@H](CC(C)C)NC(=O)CNC(=O)[C@H](CCSC)NC(=O)[C@]1(C)CCCC=CCCC[C@](C)(NC(=O)[C@H](CCSC)NC(=O)[C@H](CC(C)C)NC(=O)[C@@H](NC(=O)[C@H](CCC(=O)O)NC(=O)[C@H](CCC(=O)O)NC(=O)[C@H](CC(=O)O)NC(C)=O)C(C)C)C(=O)N[C@@H](CC(C)C)C(=O)N[C@@H](C(C)C)C(=O)N[C@@H]([C@@H](C)CC)C(=O)N1)C(=O)N[C@@H](CCCCN)C(=O)N[C@@H](CCC(=O)O)C(=O)N[C@@H](CC(C)C)C(=O)N1CCC[C@H]1C(=O)N[C@@H](CCC(=O)O)C(=O)N[C@@H](CC(C)C)C(=O)N[C@@H](Cc1c[nH]c2ccccc12)C(=O)N[C@@H](CC(C)C)C(N)=O [SP-87] (Ac-DEEVLM[S5]LVI[S5]MGLDRIKELPELWL-NH2; staple 7-11) | ++++ (≥50: ++++)
10 | ≤ 5 µM | CCCC[C@H](NC(=O)[C@H](CC(C)C)NC(=O)[C@@H](NC(=O)[C@H](CCC(=O)O)NC(=O)[C@H](CCC(=O)O)NC(=O)[C@H](CC(=O)O)NC(=O)[C@@H](NC(=O)[C@H](Cc1ccccc1)NC(C)=O)[C@@H](C)CC)C(C)C)C(=O)N[C@]1(C)CCCC=CCCC[C@](C)(C(=O)N[C@@H](CCCC)C(=O)N[C@@H](C)C(=O)N[C@@H](CC(C)C)C(=O)N[C@@H](CC(=O)O)C(=O)N[C@@H](CCCNC(=N)N)C(=O)N[C@H](C(N)=O)[C@@H](C)CC)NC(=O)[C@H]([C@@H](C)CC)NC(=O)[C@H](C(C)C)NC(=O)[C@H](CC(C)C)NC1=O [SP-296] (Ac-FIDEEVL[Nle][R5]LVI[R5][Nle]ALDRI-NH2; staple 9-13) | ++++ (≥50: ++++)
